Experimental findings from patent US6835842B2, “3-nitroisoxazoles and their use in the protection of materials” (Bayer Aktiengesellschaft, priority 2000, dated 2004) are described below.

What all share (assay type): cell-based
Assay [1] has as its system Bacillus subtilis. The experiment in a line: Use Example A: minimum inhibitory concentration against bacteria on Landy agar. The conditions noted are these: 3 days at 28° C., 60-70% relative atmospheric humidity. Here is the method:
(§1) The MIC is determined after 3 days of storage at 28° C. and 60-70% relative atmospheric humidity.

Assay [2] deals with Pseudomonas aeroginosa. The description is as above. The conditions noted are these: 3 days at 28° C., 60-70% relative atmospheric humidity. Here is the method: as §1
The subject of assay [3] is Aspergillus niger. The experiment in a line: Use Example B: minimum inhibitory concentration against fungi on malt extract agar. The conditions noted are these: 2 weeks at 28° C., 60-70% relative atmospheric humidity. Here is the method: (§2) The MIC is determined after 2 weeks of storage at 28° C. and 60-70% relative atmospheric humidity.
In assay [4] the test system is Chaetomium globusum. The description is as above. The conditions noted are these: 2 weeks at 28° C., 60-70% relative atmospheric humidity. Here is the method: as §2
For assay [5], the system named is Penicillium brevicaule. The assay is described as above. The conditions noted are these: 2 weeks at 28° C., 60-70% relative atmospheric humidity. As to the method:
as §2

Values after ≈ are worked out from the molar mass of the structure shown.

Regarding `O=[N+]([O-])c1cc(-c2ccccc2)on1` [Example 2], the “Minimum inhibitory concentration Bacillus subtilis” value in assay [1] was less than 40 ppm. Also, the “Minimum inhibitory concentration Pseudomonas aeroginosa” value in assay [2] is listed as greater than 400 ppm. For the same molecule, the “Minimum inhibitory concentration Aspergillus niger” value in assay [3] turned out to be 400 ppm. For the same molecule, in assay [4], the “Minimum inhibitory concentration Chaetomium globusum” value came to 200 ppm. Also, the “Minimum inhibitory concentration Penicillium brevicaule” value in assay [5] is listed as 200 ppm.

Consider `CCCCc1cc([N+](=O)[O-])no1` [Example 4], for which, in assay [1], the “Minimum inhibitory concentration Bacillus subtilis” value was less than 40 ppm. Also, the “Minimum inhibitory concentration Pseudomonas aeroginosa” value in assay [2] is reported as 200 ppm. The “Minimum inhibitory concentration Aspergillus niger” value in assay [3] is listed as greater than 400 ppm. Also, the “Minimum inhibitory concentration Chaetomium globusum” value in assay [4] was 400 ppm. Further, the “Minimum inhibitory concentration Penicillium brevicaule” value in assay [5] is given as 400 ppm.

With `Cc1cc([N+](=O)[O-])no1` [Example 3], the “Minimum inhibitory concentration Bacillus subtilis” value in assay [1] was less than 40 ppm. Besides, the “Minimum inhibitory concentration Pseudomonas aeroginosa” value in assay [2] worked out at 200 ppm. The “Minimum inhibitory concentration Aspergillus niger” value in assay [3] stood at 200 ppm. Also, the “Minimum inhibitory concentration Chaetomium globusum” value in assay [4] was 200 ppm. In addition, in assay [5], the “Minimum inhibitory concentration Penicillium brevicaule” value is listed as 200 ppm.

The term MIC denotes the least concentration at which growth counts as inhibited. A low value points to greater potency. As to `O=[N+]([O-])c1ccon1` [Example 1, 3-Nitroisoxazole], the MIC is less than 40 µg/mL in assay [1] (Bacillus subtilis, 72 h); 100 µg/mL (≈ 877 µM) in assay [2] (Pseudomonas, 72 h); 100 µg/mL (≈ 877 µM) in assay [3] (Aspergillus niger, 336 h); 200 µg/mL (≈ 1750 µM) in assay [4] (Chaetomium, 336 h); 100 µg/mL (≈ 877 µM) in assay [5] (Penicillium, 336 h).

Regarding `CCOc1ccc(-c2cc([N+](=O)[O-])no2)cc1Cl` [Example 5], in assay [1], the “Minimum inhibitory concentration Bacillus subtilis” value was less than 40 ppm. For the same molecule, the “Minimum inhibitory concentration Pseudomonas aeroginosa” value in assay [2] was greater than 400 ppm. For the same molecule, in assay [3], the “Minimum inhibitory concentration Aspergillus niger” value is on record as 400 ppm. Also, the “Minimum inhibitory concentration Chaetomium globusum” value in assay [4] is listed as 100 ppm. Further, in assay [5], the “Minimum inhibitory concentration Penicillium brevicaule” value came to 200 ppm.
